pEC50: −log10 of the molar value.

These results are taken from US20160221948A1, “NITROGEN-CONTAINING SATURATED HETEROCYCLIC COMPOUND” (SUMITOMO CHEMICAL COMPANY, LIMITED, priority 2013, published 2016).

Data set [1] has as its system Slc:ddY mice. Put plainly: Mouse Y-shaped maze test, scopolamine-induced memory impairment. The format is in vivo. To be noted: for spontaneous alternations: Scopolamine HBr 0.6 mg/kg subcutaneous. The procedure: Evaluation of amelioration in cognitive impairment using mouse Y-shaped maze test (hereinafter, may be called “Y-maze test”)
In the Y-maze test using Slc:ddY mice (male, Japan SLC, Inc.) with body weight of 25-35 g or 27-30 g, when 0.6 mg/kg of Scopolamine HBr (cat. No. S0929, Sigma Aldrich, USA) is subcutaneously administered to mice, memory impairment is caused, and reducing in spontaneous alternation is observed. Accordingly, mice were pre-treated by orally receiving compounds involved with the present invention, and ameliorating action in memory impairment was evaluated. […] (hereinafter, spontaneous alternations in each group in Example 21 are shown: 0.5% MC receiving group, 71.2±3.5; Scopolamine receiving group, 47.5±2.6; 1 mg/kg receiving group, 60.7±2.6; 3 mg/kg receiving group, 64.6±2.2.)

Data set [2] concerns Slc:ddY mice. Put plainly: Mouse novel object recognition test (mORT). In kind it is in vivo. To be noted: 3 mg/kg (oral), administered before the first trial. Here is the method:
Evaluation of cognitive function using mouse novel object recognition test (hereinafter, may be called “mORT”)
In the mORT using Slc:ddY mice (male, Japan SLC, Inc.) with body weight of 25-45 g or 35-40 g, memory deterioration to familiar subject depending on the interval time between the first trial (training) and the second trial (test) is observed. If the second trial is performed 24 hours after performing the first trial, significant forgetting is observed. […] […] (discrimination index as indexes for cognitive function are shown: 0.5% MC receiving group, 0.054±0.026; 3 mg/kg receiving group, 0.245±0.066.)

For a further data set, the target named is human SSTR4 (Homo sapiens, UniProt P31391). Put plainly: Evaluation of agonist activities using human SSTR4-stably expressing cells (aequorin luminescence). In kind it is cell-based. On the set-up: expressed in transfected cells; host or cells: HEK293. To be noted: for SSTR4 agonist activity compared with other compounds: Tables 25 to 27; for pEC50: luminescence signal, 1 μmol/L somatostatin taken as 100%. The procedure:
Evaluation of Agonist Activities Using Cells that stably expressing human-derived SSTR4 (human SSTR4-stably expressing cells)
(1) Human SSTR4-Stably Expressing Cells
Human SSTR4-stably expressing cells were prepared, and cultured. Specifically, HEK293 cells, human kidney-derived cells, were used as host cells. By introducing pcDNA3.1 (cat. No. V79020, invitrogen, Carlsbad, Calif., USA) to which human SSTR gene was inserted into HEK293 cells, human SSTR4-stably expressing cell line was obtained. For selection, G418 (cat. No. 16513-84, Nacalai tesque, Japan) was used.
As the culture medium, D-MEM medium (cat. No. 11995, GIBCO, USA), containing 10% FBS and 200 μg/mL G418, was used, the culture was performed in a 225 cm^2 flask (cat. No. 11-006-010, Iwaki, Japan).
At about 80% confluence, the cells were harvested by treating with 20-fold diluted 0.25% Trypsin-EDTA (cat. No. 35554-64, Nacalai, tesque, Japan). The harvested cells were prepared at a reaction medium composed of Hanks Buffer (cat. No. 14065-056, invitrogen, Carlsbad, Calif., USA)/20 mM Hepes (cat. No. 15630-080, invitrogen, Carlsbad, Calif., USA), and 0.1% BSA (cat. No. A7906, Sigma Aldrich, USA) to 70000 cells/mL. Gα16 and apoaequorin were transiently introduced to the harvested cells, and the cells were seeded to a 384 well plate (cat. No. 781090, Greiner, Germany) at about 2000 cells/30 μL/well. On the next day of cell seeding, Coelenterazine H (cat. No. S2011, Promega, USA) was added to each well (10 μL/well) to make a final concentration of 0.5 μmol/L, and the plate was centrifuged. Then, the plate was left at room temperature for 4 hours in shaded state.
(2) Preparation of Test Compounds
DMSO solution of each test compound having 1000-fold larger concentration than the final concentration was prepared. The DMSO solutions were made to have 10-fold concentration than the final concentration with Hanks/20 mmol/L Hepes/0.1% BSA.
(3) Evaluation of Agonist Activity
For detection of luminescence signal due to SSTR4-stimulation, FDSS7000 (manufactured by Hamamatsu Photonics K.K.) was used. To plates having cells and the luminescence substrate, solutions of test compounds were added, then each luminescence signal was measured for 90 seconds, and each relative luminescence unit (RLU) was calculated. Based on luminescence signal from the wells to which a 1 μmol/L somatostatin solution was added taken as 100%, agonist activity of each test compound was evaluated.

Data set [3] in a line: Pharmacokinetic test (PK test) using rodents. The settings on record: mouse, brain and plasma; mice, 10 mg/kg oral, an hour and 4 hours after; read-out: brain-plasma concentration ratio. In kind it is in vivo. Here is the method:
Moreover, it was verified, as the results of a pharmacokinetic test (PK test) using rodents, that the compound of the present invention has more excellent in vivo kinetics, central nervous system penetration, and exposure level, compared with the pyrrolidine derivative described in Patent Literature 1. In particular, the following Test Example 8 was performed.
Pharmacokinetic Test (PK Test) Using Rodents
Compounds of the present invention were orally administered to mice at a dose of 10 mg/kg, and an hour and 4 hours after, the plasma and the brain were collected, concentrations of the administered compounds were measured by LC/MS/MS. As well, protein binding rates in the plasma and the brain were measured with equilibrium dialysis method, and concentrations of non-binding compounds were calculated. The brain-plasma concentration ratio was about 5 in any cases of an hour and 4 hours after for compounds obtained in Examples 7, 14, 15, 16, 17, 18, 20, 21, 27, 40, and 50, which indicated excellent central nervous system penetration.

Sequence of human SSTR4 (P31391 whole entry): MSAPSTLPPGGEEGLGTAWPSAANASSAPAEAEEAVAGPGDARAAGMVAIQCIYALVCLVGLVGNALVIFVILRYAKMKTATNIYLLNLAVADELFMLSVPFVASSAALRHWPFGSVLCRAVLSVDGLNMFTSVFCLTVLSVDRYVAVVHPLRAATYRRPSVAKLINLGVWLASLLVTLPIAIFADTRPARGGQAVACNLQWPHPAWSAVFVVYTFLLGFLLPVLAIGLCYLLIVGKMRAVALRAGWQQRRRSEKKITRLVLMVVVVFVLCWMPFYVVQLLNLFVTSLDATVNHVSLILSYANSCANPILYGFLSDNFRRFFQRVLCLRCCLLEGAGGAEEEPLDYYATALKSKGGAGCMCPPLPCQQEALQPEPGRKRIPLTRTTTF

In the case of `CN1CCC[C@H](C(=O)NC(C)(C)c2cccc3ccccc23)C1` [Example 2, (3S)-1-methyl-N-[2-(naphthalene-1-yl)propane-2-yl]pyperidine-3-carboxamide], the spontaneous alternations in the data set with Slc:ddY mice [1] (1 mg/kg oral) worked out at 59.6±3.2; with Slc:ddY mice [1] (3 mg/kg oral), 65.0±1.8. The “ameliorating action in memory impairment” value in the data set on Slc:ddY mice [1] (at 1 or 3 mg/kg (oral)) is “significant ameliorating action in memory impairment”. Besides, the memory enhancing action entry in the data set on Slc:ddY mice [2] was “a tendency to enhance memory”. The “SSTR4 agonist activity compared with other compounds” value at human SSTR4 is recorded as “stronger SSTR4 agonist activity”.
As for `CN1CCCC(C(=O)NC(C)(C)c2cc(Cl)cc(Cl)c2)C1` (stereo not shown) [Example 7], in data set [3], the Kp was around 5. In addition, on human SSTR4, the “SSTR4 agonist activity compared with other compounds” value was “stronger SSTR4 agonist activity” and the pEC50 was 8.37.
`Cc1c(Cl)cccc1C(C)(C)NC(=O)C1CCCN(C)C1` (stereo not shown) [Example 14]: the Kp in data set [3] was around 5. Also, the pEC50 on human SSTR4 was 8.24.
`CN1CCCC(C(=O)NC(C)(C)c2cc(Cl)ccc2Cl)C1` (stereo not shown) [Example 15]: in data set [3], the Kp was around 5. Further, at human SSTR4, the “SSTR4 agonist activity compared with other compounds” value is “stronger SSTR4 agonist activity” and the negative-log EC50 (pEC50) is 8.46.
As to `CN1CCCC(C(=O)NC(C)(C)c2cccc(Cl)c2Cl)C1` (stereo not shown) [Example 16], the Kp in data set [3] is around 5. Moreover, at human SSTR4, the “SSTR4 agonist activity compared with other compounds” value is given as “stronger SSTR4 agonist activity” and the negative-log EC50 (pEC50) was 8.64.
Take `CN1CCCC(C(=O)NC(C)(C)c2ccc(Cl)cc2Cl)C1` (stereo not shown) [Example 17]: the Kp in data set [3] is around 5. For the same molecule, on human SSTR4, the “SSTR4 agonist activity compared with other compounds” value was “stronger SSTR4 agonist activity” and the negative logarithm of the EC50 (pEC50) is 8.64.
For `CN1CCC[C@H](C(=O)NC(C)(C)c2cc(Cl)cc(Cl)c2)C1` [Example 18], in that order: around 5, “stronger SSTR4 agonist activity” and 8.70.
On to `CN1CCC[C@H](C(=O)NC(C)(C)c2ccc(Cl)cc2Cl)C1` [Example 20, (3S)—N-[2-(2,4-dichlorophenyl)propane-2-yl]-1-methylpiperidine-3-carboxamide], for which the Kp in data set [3] is around 5. For the same molecule, at human SSTR4, the “SSTR4 agonist activity compared with other compounds” value was “stronger SSTR4 agonist activity” and the pEC50 is 8.89.
In the case of `Cc1c(Cl)cccc1C(C)(C)NC(=O)[C@H]1CCCN(C)C1` [Example 27, (3S)—N-[2-(3-chloro-2-methylphenyl)propane-2-yl]-1-methylpiperidine-3-carboxamide], in data set [3], the Kp was around 5. At human SSTR4, the “SSTR4 agonist activity compared with other compounds” value was “stronger SSTR4 agonist activity” and the pEC50 is 8.68.
Regarding `CN1CCC[C@H](C(=O)NC(C)(C)c2ccccc2Cl)C1` [Example 40, (3S)—N-[2-(2-chlorophenyl)propane-2-yl]-1-methylpiperidine-3-carboxamide], in data set [3], the Kp is around 5. At human SSTR4, this molecule had a negative logarithm of the EC50 (pEC50) of 8.32.
For `Cc1ccc(Cl)cc1C(C)(C)NC(=O)[C@H]1CCCN(C)C1` [Example 50, (3S)—N-[2-(5-chloro-2-methylphenyl)propane-2-yl]-1-methylpiperidine-3-carboxamide], the Kp in data set [3] was around 5. Besides, the pEC50 on human SSTR4 is 8.37.
Molecule `CCN1CCCC(C(=O)NC(C)(C)c2cccc3ccccc23)C1` (stereo not shown) [Example 111] gave a negative logarithm of the EC50 (pEC50) at human SSTR4 of 8.16.
In the case of `CC(C)(NC(=O)C1CCCN(CCF)C1)c1cccc2ccccc12` (stereo not shown) [Example 112], the negative logarithm of the EC50 (pEC50) at human SSTR4 is below 7.00.
With `CC(C)(NC(=O)[C@H]1CCCN(CCF)C1)c1cccc2ccccc12` [Example 113], the negative-log EC50 (pEC50) at human SSTR4 is 8.51.
`CCCN1CCC[C@H](C(=O)NC(C)(C)c2cccc3ccccc23)C1` [Example 114] had a pEC50 at human SSTR4 of 8.21.
In the case of `CC(C)N1CCC[C@H](C(=O)NC(C)(C)c2cccc3ccccc23)C1` [Example 115, (3S)—N-[2-(naphthalene-1-yl)propane-2-yl]-1-(propane-2-yl)pyperidine-3-carboxamide], on human SSTR4, the “SSTR4 agonist activity compared with other compounds” value is “stronger SSTR4 agonist activity” and the negative logarithm of the EC50 (pEC50) is 8.72.
With `CCN1CCCC(C(=O)NC(C)(C)c2cccc3ccccc23)C1` (stereo not shown) [Example 116], on human SSTR4, the “SSTR4 agonist activity compared with other compounds” value is on record as “stronger SSTR4 agonist activity” and the pEC50 was 8.77.
At human SSTR4, `CCCN1CCCC(C(=O)NC(C)(C)c2cccc3ccccc23)C1` (stereo not shown) [Example 117] had a pEC50 of 8.16.
As for `CCCCN1CCCC(C(=O)NC(C)(C)c2cccc3ccccc23)C1` (stereo not shown) [Example 118], the negative-log EC50 (pEC50) at human SSTR4 was 7.26.
`CC(C)N1CCCC(C(=O)NC(C)(C)c2cccc3ccccc23)C1` (stereo not shown) [Example 119] had a negative logarithm of the EC50 (pEC50) on human SSTR4 of 8.46.
Still for that read-out and setting: the result for `CCC(C)N1CCCC(C(=O)NC(C)(C)c2cccc3ccccc23)C1` (stereo not shown) [Example 120] reads 7.64; that for `CC(C)N1CCC[C@H](C(=O)NC(C)(C)c2ccccc2Cl)C1` [Example 121], 7.93.
On the same count and under the same terms, the result for `[2H]C([2H])([2H])N1CCC[C@H](C(=O)NC(C)(C)c2ccccc2Cl)C1` [Example 122] reads 8.44.
